Results on 89 compounds are retold here after a melting point compilation (Tetko et al.; mined from patent text by program, amines drawn as free bases though some values may be those of a salt).

For orientation: melting point means the temperature of the solid-liquid transition.

In turn, `OCc1cc(Cl)cc(Cl)c1Cl` had a melting point of 90 to 93 °C.

In the case of `CCCc1c(OCCCOc2cccc3c2CCCC3)ccc2c1OC(CCCC(=O)O)(CCCC(=O)O)CC2=O`, the melting point was 138 °C.

For the compound `CCC(CC)Nc1nc(-c2cc(OC)c(OC)c(OC)c2)nc2sc(C#N)c(C)c12`, the melting point lay in the range of 226 to 228 °C.

Turning to `CCOP(=O)(CNC(C)(c1ccccc1)c1cc(C(C)(C)C)c(O)c(C(C)(C)C)c1)OCC` (centres undefined), the melting point lay within 104 to 105 °C.

`O=S(=O)(Nc1ccccc1/C=C/c1ccncc1)c1ccc(Cl)cc1`: the melting point lay within 218 to 220 °C.

On to `N#Cc1nn(-c2c(Cl)cc(C(F)(F)F)cc2Cl)c(C(=O)C(F)F)c1Cl`, for which the melting point fell in the range of 124 to 125 °C.

In turn, `O=C1N(Cc2nc(C(F)(F)F)cs2)c2ccccc2C12COc1cc3c(cc12)OCCO3` (centres undefined) had a melting point of 169 to 170 °C.

As to `COc1cccc(C=O)c1OC(C)=O`, the melting point fell in the range of 75.4 to 76.2 °C.

The compound `COc1ccc([N+](=O)[O-])c(CBr)c1` came in with a melting point of 64 to 65 °C.

`Nc1cnc(-c2cccc(Cl)c2Cl)c(N)n1` yielded a melting point of 169 to 170 °C.

Compound `CCOC(=O)c1c[nH]c2ccc(C(=O)c3c(C)c(OC)c4ccccn34)cc2c1=O` gave a melting point of 271 °C.

For `O=C(C#Cc1ccc(C(=O)O)cc1)Nc1ccccc1`, the melting point lay within 271 to 272 °C.

`CSc1nc(N)nc2c3nc(C)cc(C)c3nn12` registered a melting point of 306 to 307 °C.

For `COCc1cnc2c(NC(=O)c3ccccc3C(F)(F)F)cccc2c1N1CCN(C)C1=O`, the melting point stood at 156 °C.

`Cn1cc(C2=CC(=O)NC2=O)c2ccccc21`: the melting point is 229 to 231 °C.

`CSc1cccc(-c2ccccc2NC(=N)N(C)C)c1` had a melting point of 94 to 95 °C.

On to `CC(=O)N1CCN(c2cc3nc(C(C)(C)C)sc3cc2N)CC1`, for which the melting point lay in the range of 182 to 185 °C.

Turning to `COC(=O)c1cccc(NC(N)=S)c1`, the melting point fell in the range of 171 to 172 °C.

In turn, `CCCCOc1c(CNC(=O)OC(C)(C)C)n(CC(C)C)c(=O)c2ccc(-c3nc(C)c(C(N)=O)s3)cc12` had a melting point of 234 °C.

In turn, `O=[N+]([O-])c1cn2c(n1)OC(COc1ccc(-c3csc(Cc4ccc(OC(F)(F)F)cc4)n3)cc1)CC2` (centres undefined) came in with a melting point of 222 to 224 °C.

For the compound `O=C(O)CCc1c[nH]c2c(C(=O)c3ccc(Cl)cc3)cccc12`, the melting point fell in the range of 190 to 202 °C.

In turn, `COc1ccc2cc3c(c(-c4ccc(C)cc4)c2c1)C(=O)NC3=O` registered a melting point of 298 to 301 °C.

Consider `OC(c1ccccc1)c1ccccc1Cl` (centres undefined), for which the melting point is 61 to 63 °C.

`Cc1ccc(C2C3=C(CC(C)(C)CC3=O)NC3=C2C(=O)CC(C)(C)C3)cc1[N+](=O)[O-]` registered a melting point above 300 °C.

In turn, `ClCc1cn2cc(Cl)cc(Cl)c2n1` showed a melting point of 162 to 163 °C.

On to `O=C1C2CCCC2=Nc2ccccc2N1Cc1cccc([N+](=O)[O-])c1` (centres undefined), for which the melting point was 124 to 126 °C.

In turn, `O=C1c2cc(Cl)c(Cl)cc2C(=O)c2c1c(Cl)c1cc(Cl)c(Cl)cc1c2Cl` registered a melting point above 260 °C.

For the compound `COc1cc2c(cc1OC)N(C(=O)CCSC(C)=O)C(C(=O)O)CC2` (centres undefined), the melting point lay within 104 to 107 °C.

Turning to `CCOC(=O)[C@H](CSCCc1ccccc1)NC(=O)C(CSC(C)=O)Cc1ccccc1` (some centres undefined), the melting point fell in the range of 63 to 64 °C.

Take `CC(Br)c1ccc(-c2nc3ccccc3o2)cc1` (centres undefined): the melting point lay within 128 to 131 °C.

Consider `COC(=O)c1ccccc1S(=O)(=O)Cc1c(O[C@H](Cn2ccnc2)c2ccccc2)ccc2c1CCCC2=O`, for which the melting point was 203 to 205 °C.

On to `O=Cc1cccc(/C=C/c2ccc3cc(F)ccc3n2)c1`, for which the melting point lay within 110 to 111 °C.

Regarding `CCCCCCCCCCCCCCCCC(O)CBr` (centres undefined), the melting point is 53.5 to 54.5 °C.

`CCCCCOC(=O)Cc1nc(-c2ccc(F)cc2)oc1-c1ccsc1` showed a melting point of 78 to 80 °C.

On to `C[Si](C)(C)OC(Cn1ccnc1)(Cn1cncn1)c1ccc(Cl)cc1Cl` (centres undefined), for which the melting point lay in the range of 82 to 85 °C.

For `Cn1nc(-c2ccccc2Cl)nc1-c1ccccc1Cl`, the melting point lay in the range of 82 to 85 °C.

The compound `COc1cncc(OC)c1C(=O)Nc1ccc(C[C@H](NC(=O)Nc2ccccc2S(=O)(=O)c2ccccc2)C(=O)O)cc1` yielded a melting point of 196 °C.

For the compound `OC1(COc2cccc3onc(OCC4CCN(CC5(O)CCOCC5)CC4)c23)CCCC1`, the melting point came out at 136 °C.

On to `Cc1cc2cc(CN3CCCC3)cnc2cc1NC(=O)c1ccc(-c2cc3ccccc3o2)cc1`, for which the melting point was determined as 219 °C.

As for `CC(=O)Nc1ccc(Nc2c([N+](=O)[O-])cc(C(=O)O)cc2S(=O)(=O)NC(C)=O)cc1`, the melting point was in the range of 175 to 185 °C.

Turning to `CC(=O)c1ccc2c(c1)C(c1ccccc1F)=NC(C)(C)C(=O)N2C`, the melting point is 68 °C.

`Cc1ccc(Cl)cc1N1CCCN(C2CCC2)C1=S` yielded a melting point of 152 to 154 °C.

For the compound `CCOC(=O)C1=C(CC)NN=C(C(=O)OC)C1c1cccc([N+](=O)[O-])c1` (centres undefined), the melting point is 139 °C.

Regarding `Cn1c(NO)cc(=O)n(C2CCCCC2)c1=O`, the melting point is 153 to 155 °C.

`CC(=O)C1(COC(=O)Oc2ccccc2)CC2C=CC1C2` (centres undefined) displayed a melting point of 76 to 77 °C.

`CC(=O)N1CCN(CCSc2ccnc(CSc3nc4ccccc4[nH]3)c2C)CC1`: the melting point lay within 129 to 131 °C.

Regarding `Cc1nc(-c2cncc(F)c2)sc1N(C)C(=S)NC1CC1`, the melting point lay within 117 to 119 °C.

For the compound `CCc1cccc(CC)c1NC(=O)NC1(c2ccccc2)CCCC1`, the melting point lay within 215 to 218 °C.

As to `CC(C)c1nc2c(c3c1[nH]c1ccccc13)C(=O)CC(C)(C)C2`, the melting point was in the range of 176 to 178 °C.

Turning to `CC(=O)N(C(C)=O)c1ccc2c(c1)C(C(Cl)(Cl)Cl)OC(C(Cl)(Cl)Cl)O2` (centres undefined), the melting point was in the range of 147 to 148 °C.

Regarding `CC(C)(C)c1cc(CCC(=O)NNC(=O)C=Cc2ccc(Cl)cc2)cc(C(C)(C)C)c1O`, the melting point lay in the range of 276 to 277 °C.

As to `CCOP(=O)(CS(=O)(=O)Oc1ccccc1)OCC`, the melting point was 50.5 to 51.5 °C.

Compound `COc1ccc2nc(COc3ccc(NC(C)=O)cc3)sc2c1` showed a melting point of 145 to 147 °C.

As to `CC(C)(NCCCn1ccnc1)c1ccc(-c2ccc(O)cc2)cc1`, the melting point was 178 to 180 °C.

`COc1ccc(Nc2nc(NC3CCNCC3)nc(N(C)N3CCCCCC3)n2)cc1Cl` had a melting point of 81 °C.

In the case of `O=C(O)/C(=N/O)c1ccc(OCCOc2ccc3ccccc3c2)s1`, the melting point lay within 138 to 140 °C.

With `CCOc1ccc(C2=NN(C(=O)c3cccc(N)c3)CCC2)cc1OCC`, the melting point was 162 to 163 °C.

Compound `Oc1ccc(-c2noc3cc(O)ccc23)cc1` displayed a melting point of 192 to 194 °C.

As for `N#Cc1ccccc1Cn1cc(-c2ccnc(N)c2)n(-c2ccc(F)cc2)c1=O`, the melting point lay within 182 to 183 °C.

`C=C(C)COc1ccc(Br)cc1CN(CC)c1ccc(C(=O)NS(=O)(=O)c2ccccc2)cn1` gave a melting point of 193 °C.

`CC(=O)Oc1c(C(C)(C)C)cc(C=O)cc1C(C)(C)C` displayed a melting point of 65.2 to 74.5 °C.

As to `Cc1c(Cl)cccc1-n1nc(C(N)=O)nc1-c1ccccc1`, the melting point is 198 to 200 °C.

Compound `CCCCCN(CC(=O)OC(C)(C)C)C(=O)C(CCC(=O)OC)CS(=O)(=O)c1ccc2ccccc2c1` (centres undefined) came in with a melting point of 85 to 87 °C.

For `O=C(NCc1ccccn1)Nc1cc(N2CCCC2=O)ccn1`, the melting point is 234 to 235 °C.

Compound `CC(=O)Oc1ccc(C(=O)Oc2ccc(OC(=O)c3ccc(OC(C)=O)cc3)c(C)c2)cc1` came in with a melting point of 128 to 130 °C.

In turn, `N#CCc1c[nH]c2ccc(CS(N)(=O)=O)cc12` yielded a melting point of 184 to 185 °C.

The compound `CCOC(=O)c1[nH]c2cc(Cl)cc(Cl)c2c1I` yielded a melting point of 218 to 220 °C.

Turning to `COc1ccc(OC)c(CNC(=O)n2cc(F)c(=O)[nH]c2=O)c1`, the melting point stood at 185 °C.

`CC(=O)C1=C(C)c2ccccc2C1(C)C` came in with a melting point of 104 to 105 °C.

`CCOC(=O)/C(C)=C(/C)c1cccc(OCc2nc(-c3ccc(C(F)(F)F)cc3)oc2C)c1` registered a melting point of 115 to 116 °C.

On to `CCCCCCCCCCCCC(C(=O)NO)S(=O)(=O)c1ccc(OC)cc1` (centres undefined), for which the melting point was 114 °C.

Compound `C=CC(=O)OCCCCCCCCOc1ccc(C(=O)Oc2ccc(C=O)cc2)cc1` came in with a melting point of 73 °C.

Compound `CCCn1nc(SC2CCC(CC(=O)O)CC2)c(C(=O)O)c1Cc1cc2c(cc1Cl)OCO2` (centres undefined) showed a melting point of 178 °C.

In turn, `CC(C)(O)c1ccc(CNC(=O)c2cccnc2Oc2ccc3c(c2)OCO3)cc1` had a melting point of 118 to 120 °C.

`CCn1nc(OCCCc2ccc(OC(C)C)cc2Oc2ncc(C(F)(F)F)cc2Cl)cc1CCC(=O)O` showed a melting point of 73 to 74 °C.

`CCCCOc1ccc(/C=C/c2nc3c([nH]2)c(=O)n(CCC)c(=O)n3CCC)cc1` showed a melting point of 237 to 239 °C.

In turn, `Cc1c(F)c(N2CCC(C)(CN)C2)cc2c1c(=O)c(C(=O)O)cn2C1CC1` (centres undefined) came in with a melting point of 250 to 252 °C.

Compound `CS(=O)(=O)Nc1ccc(C23CC2C(=O)NC3=O)cc1` (centres undefined) returned a melting point of 208 to 209 °C.

The compound `O=C(NC(C(=O)O)c1ccc2c(c1)CCO2)OCc1ccccc1` (centres undefined) had a melting point of 121 to 123 °C.

In the case of `COCc1cccc(OCCc2cnc(SC)[nH]c2=O)c1`, the melting point lay in the range of 129 to 131 °C.

Consider `O=C(CCCc1ccccc1)N(O)Cc1ccccc1`, for which the melting point is 72 to 74 °C.

`CC1(C)c2ccccc2C(C)(C)N1O`: the melting point fell in the range of 128 to 130 °C.

With `O=C(NCCCSc1ccncc1)c1cccnc1`, the melting point lay within 90 to 91 °C.

In turn, `COC(=O)COc1ccc(C(=O)CN2CCN(c3ccnc(C)c3)CC2)cc1` registered a melting point of 155 to 157 °C.

In turn, `CC(=O)NCC(O)(Cn1cncn1)c1ccc(Cl)cc1Cl` (centres undefined) gave a melting point of 178 to 179 °C.

In turn, `CC(=O)OC1C(c2ccccc2)=C(c2ccc(S(C)(=O)=O)cc2)C1(C)C` (centres undefined) displayed a melting point of 60 to 61 °C.

With `O=C(c1cccs1)C(Br)c1ccc(F)cc1` (centres undefined), the melting point lay within 182 to 189 °C.

For `CC(CSC(=O)c1ccccc1)C(=O)N(CC(=O)O)C1Cc2ccccc2C1` (centres undefined), the melting point was 113 to 115 °C.

`CCOC(=O)c1ncsc1-c1cccc(I)c1` registered a melting point of 77 to 78 °C.
